Values quoted from earlier work in patent US20120209125A1, “Singlet Oxygen Production and Dosimetry for Photodynamic Therapy” (PHYSICAL SCIENCES, INC., priority 2011, published 2012).

Conditions: isoflurane gas anesthesia; 'minimally metabolized'

FC(F)OC(Cl)C(F)(F)F (stereo not shown) [isoflurane]
fraction metabolized by the liver: < 0.17%
